Results on two molecules are retold here after paper PMC6328587 (Nature Communications, 2019).

The structures appear in SMILES notation.

The target of one experiment is T1, p38α (Homo sapiens, UniProt Q16539).
T1 construct: SJFα PROTAC (13-atom linker, amide attachment) selectively degrades p38α; endogenous in cells; host or cells: MDA-MB-231
Briefly: PROTAC washout assay, p38α. In kind it is cell-based. The conditions noted are these: 250 nM PROTAC for 24 h, then re-plated in fresh medium. The method, then:
(§1) MDA-MB-231 cells were plated at 1.5 × 10^5 cells per well in a six-well dish and allowed to adhere overnight. On the following day, all cells were treated with either vehicle (DMSO) or PROTAC (250 nM). After 24 h, cells were either harvested or washed with 1X PBS, trypsinized, and re-plated onto new six-well dishes in fresh RPMI-1640 (1 × ) media without additional compound. For these washout conditions, cells were collected every 24 h until final harvest (72 h washout).

Experiment [1] deals with T2, p38α:PROTAC:VHL ternary complex (Homo sapiens, UniProt P40337+Q16539).
T2 construct: The plasmid contains an N-terminal His6 tag and encodes a region spanning amino acids 2–360 of the human p38α kinase; made in house; host or cells: E. coli BL21-CodonPlus(DE3)-RIPL (p38α); E. coli BL21(DE3) (GST-VBC)
Briefly: In vitro ternary complex pull-down, GST-VBC bait, purified p38α. Format: binding. The conditions noted are these: all concentrations tested. Here is the method: Glutathione Sepharose 4B (Glutathione-conjugated beads in a slurry containing 20% ethanol) were washed twice with 1X wash buffer (50 mM HEPES pH 7.5, 150 mM NaCl, 1 mM DTT, 0.01% NP40, 5 mM MgCl2, 10% Glycerol) and then blocked for 1 h at room temperature with 10% bovine serum albumin (BSA) in wash buffer. The beads were then washed again three times with wash buffer and then purified GST-VBC (stable form of VHL complexed with EloB/EloC, described above) was immobilized for 1 h at 4 °C at 3.6 pmole µL^–1 of beads. The beads were then washed three times with wash buffer, resuspended, divided into two equal volumes, and p38α or p38δ protein was added. The bead:p38 mixture was then aliquoted to separate tubes and PROTAC was added at the indicated concentration (PROTACs were intermediately diluted in 10% DMSO and 0.25% CHAPS). This mixture was incubated at 4 °C for 2 h. The beads were washed three times with 10 column volumes of wash buffer and then eluted with SDS loading buffer at 75 °C for 10 min.

The target in the next experiment is T3, FLAG-p38δ (Homo sapiens, UniProt O15264).
T3 construct: expressed in transfected cells; host or cells: HeLa
T3 sequence (O15264 1-365): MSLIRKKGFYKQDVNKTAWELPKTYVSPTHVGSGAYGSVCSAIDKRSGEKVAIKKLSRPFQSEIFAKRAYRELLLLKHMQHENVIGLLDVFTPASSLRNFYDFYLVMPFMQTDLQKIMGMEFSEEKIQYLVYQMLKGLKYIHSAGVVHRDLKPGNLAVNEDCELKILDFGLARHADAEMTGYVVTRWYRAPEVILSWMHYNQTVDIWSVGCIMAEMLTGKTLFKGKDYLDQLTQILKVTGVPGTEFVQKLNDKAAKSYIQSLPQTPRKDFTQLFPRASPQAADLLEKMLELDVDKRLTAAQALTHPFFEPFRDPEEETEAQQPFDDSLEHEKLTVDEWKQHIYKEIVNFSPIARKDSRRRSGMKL
Briefly: TUBE1 immunoprecipitation of poly-Ub p38δ in HeLa cells. Format: cell-based. The conditions noted are these: 1 µM PROTAC, 3 hours. Here is the method:
TUBE1 immunoprecipitation experiments were carried out exactly as described above, except for the fact that 1 mg of normalized HeLa lysate was loaded onto 20 µL TUBE1 agarose (LifeSensors) resin per sample.
WCL IP : TU B E 1 DMS SJF SJF
Supplementary Figure 7. SJFδ in d u ces p o lyu b iq u itin atio n o f p 38δ(related to F ig u re 4).
HeLa cells were co-transfected with HA-Ub and FLAG p38δ and treated with vehicle (DM SO ), 1 µM SJFα, or 1 µM SJFδ for 3 hours. Lysates were im m unoprecipitated with tandem ubiquitin binding entity (TUBE1) agarose beads and assessed by western blots detecting FLAG (p38δ).
TUBE1 binds tetra ubiquitin chains with high affinity, thereby enriching for polyubiquitinated proteins. In this assay, HA (Ub) serves as an im m unoprecipitation control for poly-Ub TUBE1 […]

The next experiment deals with T4, p38δ (Homo sapiens, UniProt O15264).
T4 construct: endogenous in cells; host or cells: MDA-MB-231
T4 sequence (O15264 1-365): T3 sequence (O15264 1-365)
Briefly: PROTAC washout assay, p38δ. In kind it is cell-based. The conditions noted are these: 250 nM PROTAC for 24 h, then re-plated in fresh medium. Here is the method: as §1

T2 sequence (Q16539 2-360 limits assumed): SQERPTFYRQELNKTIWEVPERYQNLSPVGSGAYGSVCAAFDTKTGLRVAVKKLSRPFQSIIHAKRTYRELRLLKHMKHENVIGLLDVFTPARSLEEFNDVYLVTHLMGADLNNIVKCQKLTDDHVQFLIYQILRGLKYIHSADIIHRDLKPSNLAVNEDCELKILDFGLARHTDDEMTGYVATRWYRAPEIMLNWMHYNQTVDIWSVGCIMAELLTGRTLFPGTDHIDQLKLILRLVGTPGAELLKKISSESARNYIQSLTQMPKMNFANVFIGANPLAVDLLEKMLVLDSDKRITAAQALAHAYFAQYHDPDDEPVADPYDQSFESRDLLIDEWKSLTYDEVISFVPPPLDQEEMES
T2 sequence (P40337 whole entry, the tested form may be a part): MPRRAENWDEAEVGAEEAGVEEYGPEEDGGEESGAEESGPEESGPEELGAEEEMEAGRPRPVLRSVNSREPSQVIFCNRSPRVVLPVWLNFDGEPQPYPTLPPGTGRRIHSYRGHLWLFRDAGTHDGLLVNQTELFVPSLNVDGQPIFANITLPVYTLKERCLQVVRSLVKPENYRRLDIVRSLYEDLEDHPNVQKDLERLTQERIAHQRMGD
T2 sequence (Q15370 whole entry partner, the tested form may be a part): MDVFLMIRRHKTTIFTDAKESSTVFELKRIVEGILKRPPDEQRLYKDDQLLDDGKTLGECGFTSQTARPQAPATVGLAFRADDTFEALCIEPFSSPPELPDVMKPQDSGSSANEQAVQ
T2 sequence (Q15369 whole entry partner, the tested form may be a part): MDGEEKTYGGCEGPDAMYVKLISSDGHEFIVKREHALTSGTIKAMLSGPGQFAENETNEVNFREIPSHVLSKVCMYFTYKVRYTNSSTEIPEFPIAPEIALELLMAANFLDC
T1 sequence (Q16539 whole entry): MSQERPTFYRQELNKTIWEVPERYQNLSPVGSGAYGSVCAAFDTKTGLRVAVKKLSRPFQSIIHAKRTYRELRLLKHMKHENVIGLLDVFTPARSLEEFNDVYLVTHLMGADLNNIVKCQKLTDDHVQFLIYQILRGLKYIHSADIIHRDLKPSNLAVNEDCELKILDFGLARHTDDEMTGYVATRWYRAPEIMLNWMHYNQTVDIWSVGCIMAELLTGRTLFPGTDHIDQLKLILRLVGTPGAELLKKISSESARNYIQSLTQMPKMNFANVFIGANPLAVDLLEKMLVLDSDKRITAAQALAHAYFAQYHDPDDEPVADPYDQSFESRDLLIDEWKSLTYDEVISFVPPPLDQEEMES

With `COc1cc2c(Oc3ccc(NC(=O)C4(C(=O)Nc5ccc(F)cc5)CC4)cc3F)ccnc2cc1OCCCCOCCCCOCC(=O)N[C@H](C(=O)N1C[C@H](O)C[C@H]1C(=O)NCc1ccc(-c2scnc2C)cc1)C(C)(C)C` [SJFα], the “time p38α degradation efficacy is maintained post-washout” value at p38α is on record as 72 h. Moreover, the “enrichment of purified p38α on GST-VBC bait” value in experiment [1] is on record as “substantial enrichment”.
For `COc1cc2c(Oc3ccc(NC(=O)C4(C(=O)Nc5ccc(F)cc5)CC4)cc3F)ccnc2cc1OCCOCCOCCOc1cc(-c2scnc2C)ccc1CNC(=O)[C@@H]1C[C@@H](O)CN1C(=O)[C@H](C(C)C)N1Cc2ccccc2C1=O` [SJFδ], the “TUBE1-reactivity (poly-Ub p38δ)” value on FLAG-p38δ is on record as “increased TUBE1-reactivity”. Moreover, the “time p38δ degradation efficacy is maintained post-washout” value on p38δ was 24 h. In addition, in experiment [1], the “enrichment of purified p38α on GST-VBC bait” value is listed as “no detectable enrichment”.
